Holding throughout (format): functional, cell-based
Assay [1] relates to MCF7. The assay is described as follows: Cytotoxicity against human MCF7 cells by WST-1 assay. (In general: Formazan colour is commonly taken as a measure of viable cells.)
For assay [2], the system named is MCF7. Put plainly: Cytotoxicity against human tamoxifen-resistant MCF7 cells by WST-1 assay.
Another assay deals with MDA-MB-231. The assay is described as follows: Cytotoxicity against human MDA-MB-231 cells by WST-1 assay.
Assay [3] can be described thus: Cytotoxicity against human MCF7/ADR cells by WST-1 assay. The settings on record: NCI/ADR-RES.

Bounds are passed on as bounds.

With `C[C@]1(CO)CCC[C@]2(C)[C@@H]1C[C@@H](O)[C@@]13C[C@H](CC[C@@H]21)[C@@](O)(CC[C@@]1(O)C(=O)[C@]24C[C@@H]1CC[C@H]2[C@]1(C)CCC[C@](C)(CO)[C@H]1C[C@H]4O)C3=O` [CROTONKINENSIN C], the IC50 (in the assay with MCF7 [1]; in the assay on MCF7 [2]; with MDA-MB-231; in assay [3]) was > 30 µM each time.
For `CC[C@@]1(O)C(=O)OCc2c1cc1n(c2=O)Cc2cc3ccccc3nc2-1` [CAMPTOTHECIN], the IC50 (commonly the midpoint of a concentration-inhibition curve) in the assay on MCF7 [1] was 2.6 µM; with MCF7 [2], 1.8 µM; in the assay with MDA-MB-231, 2.7 µM; in assay [3], 0.8 µM.
As to `COc1cccc2c1C(=O)c1c(O)c3c(c(O)c1C2=O)C[C@@](O)(C(=O)CO)C[C@@H]3O[C@H]1C[C@H](N)[C@H](O)[C@H](C)O1` [DOXORUBICIN], the IC50 in assay [3] was 83.2 µM.
On to `CC(=O)OC[C@@]1(C)CCC[C@]2(C)[C@@H]1C[C@@H](O)[C@@]13C[C@H](CC[C@@H]21)[C@@](O)(CC[C@@]1(O)C(=O)[C@]24C[C@@H]1CC[C@H]2[C@]1(C)CCC[C@](C)(COC(C)=O)[C@H]1C[C@H]4O)C3=O` [CROTONKINENSIN D], for which the IC50 in the assay on MCF7 [1] was 9.4 µM; in the assay with MCF7 [2], 2.6 µM; with MDA-MB-231, 22 µM; in assay [3] it was 18.9 µM.
